Experimental data: patent US9766241B2, “PGC-1beta-protein-function regulator, mitochondria-function regulator, anti-obesity agent, and screening method therefor” (priority 2012, dated 2017)
Blank lines part the entries; values can stand above or below the molecule they belong to. Where a SMILES comes first, the peptide text is derived from it. The star is where a group is joined. Cbz = O=C(OCc1ccccc1)*

What was measured:
[1] = test system: mitochondria in HEK-293 cells; assay: electron microscope observation of mitochondria in treated cells; format: cell-based; conditions: 1 μM, observed after 72 hours, FIG. 13
Method: The observation of mitochondria was performed similar to the example 9 except for observing after 72 hours from adding 1 μM of 348, 349, 351 and 355 to cells instead of transfecting the Syno siRNA in the example 9.

[2] = biological target: T1, binding between synoviolin and PGC-1β (Homo sapiens, UniProt Q86TM6, E545G); assay: in vitro binding assay between synoviolin and PGC-1β (Western blot)
T1 construct: GST fusion synoviolin which lack transmembrane domain (GST syno ΔTM); made in house
T1 sequence (Q86TM6 236-617 E545G): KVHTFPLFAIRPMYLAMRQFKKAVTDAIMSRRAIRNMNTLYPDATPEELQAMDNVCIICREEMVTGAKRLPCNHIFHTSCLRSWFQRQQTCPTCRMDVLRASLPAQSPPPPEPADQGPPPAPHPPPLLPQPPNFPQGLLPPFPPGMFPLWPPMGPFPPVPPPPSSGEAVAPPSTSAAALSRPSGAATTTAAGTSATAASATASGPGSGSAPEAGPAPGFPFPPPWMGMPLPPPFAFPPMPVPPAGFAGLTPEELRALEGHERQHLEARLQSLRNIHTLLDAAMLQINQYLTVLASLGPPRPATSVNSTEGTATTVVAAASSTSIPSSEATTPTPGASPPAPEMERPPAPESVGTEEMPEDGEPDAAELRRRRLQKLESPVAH
Method: In order to investigate an influence on PGC-1β functions by inhibitor of E3 ubiquitin ligase activity of synoviolin, an effect on inhibition of binding between the synoviolin and the PGC-1β was firstly investigated. Specifically, in a usual binding assay using MBP-PGC-1β-His protein and GST-Syno ΔTM protein, LS-102 (PARMACOPIEA, Corporation) was added and these proteins were incubated for 12 hours. Then, these proteins were separated by SDS-PAGE of 12% gel concentration, and Western blot was performed. Anti-GST antibody diluted 2500 folds were used as a primary antibody, and anti-rat HRP diluted 10000 folds was used as a secondary antibody.
In order to obtain a substance which inhibits the binding between synoviolin and PGC-1β, with respect to the substances shown in the following table 2 included in screening library relating to E3 ubiquitin ligase, in order to examine influence on the binding between synoviolin and PGC-1β, in vitro binding assays similar to the examples 3 to 6 were performed. The results were shown in FIGS. 11-1, 11-2, 11-3, and 11-4. In this example, 2 μg of PGC-1β (see FIG. 4) and 2 μg of GST-Syno ΔTM (see FIG. 6) were used.
The binding assay was performed using the following assay system. 2 μg of MBP-PGC-1β His (1-367aa) and 2 μg of the modified synoviolin fused to GST were bound for 12 hours in a buffer (20 mM Tris-HCl pH 8.0, 100 mM NaCl, 1 mM EDTA. 0.1% NP-40, 5% glucose 1, and protease inhibitors) to detect PGC-1β using anti-PGC-1β antibody.

[3] = biological target: T2, PGC-1β ubiquitination by synoviolin (SYVN1) (Homo sapiens, UniProt Q86TM6); assay: in vitro ubiquitination of PGC-1β by synoviolin (Western blot); format: biochemical; conditions: for inhibiting activity of the PGC-1β ubiquitination, concentration dependency: 1 μM and 10 μM, FIG. 21; for polyubiquitination of PGC-1β: compared to control group (DMSO), FIG. 11-4
T2 construct: MBP-Syno ΔTM-His means synoviolin in which transmembrane domain has been deleted; His tag (C)
T2 sequence (Q86TM6 246-617 limits assumed): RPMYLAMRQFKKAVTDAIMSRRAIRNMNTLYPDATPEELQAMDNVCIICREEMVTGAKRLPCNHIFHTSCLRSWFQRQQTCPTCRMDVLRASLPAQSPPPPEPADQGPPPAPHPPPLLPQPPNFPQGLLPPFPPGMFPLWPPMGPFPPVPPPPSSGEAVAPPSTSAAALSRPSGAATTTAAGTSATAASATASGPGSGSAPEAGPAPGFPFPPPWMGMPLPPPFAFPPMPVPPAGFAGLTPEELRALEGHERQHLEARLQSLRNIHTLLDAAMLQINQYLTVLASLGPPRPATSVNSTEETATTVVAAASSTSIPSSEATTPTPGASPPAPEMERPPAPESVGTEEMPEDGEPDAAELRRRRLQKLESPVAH
Method: The ubiquitin assay was performed using the following assay system. E1-His 125 ng, UbcH5C 150 ng, MBP-SYVN1 ΔTM-His 150 ng, GST-PGC-1β (1-367 aa; GST-P5), and HA-ubiquitin (HA-Ub) 750 ng were reacted at 30° C. for 2 hours in a buffer (50 mM Tris-HCL pH 7.5, 5 mM MgCl2, 0.6 mM DTT, and 2 mM ATP) to be ubiquitinated. Thereafter, the ubiquitinated proteins were bound to Glutathione Sepharose in GST washing buffer (50 mM Tris-HCl pH 7.5, 0.5 M NaCl, 1% Triton X, 1 mM EDTA, 1 mM DTT, and protease inhibitors). After washing with the GST washing buffer, ubiquitination of PGC-1β was detected by Western blotting using anti-PGC-1β antibody and anti-HA antibody.
In order to examine the concentration dependency of the inhibiting activity of test substances 348 and 349 in PGC-1β ubiquitination by synoviolin (SYVN1), the in vitro binding assay was performed in the same manner as described in Example 11.

synoviolin protein = biological target: T3, synoviolin protein (Homo sapiens, UniProt Q86TM6); conditions: disclosed in JP 2008-74753 A; cited from earlier work
T3 construct: MBP-Syno ΔTM-His means synoviolin in which transmembrane domain has been deleted; His tag (C)
T3 sequence (Q86TM6 246-617 limits assumed): as above

[4] = test system: PPRE ×3-TK-luc reporter (PGC-1β coactivator function); assay: Luciferase assay with PPRE ×3-TK-luc reporter in HEK-293 cells; format: cell-based
Method: Specifically, control siRNA or Syno siRNA was temporarily transfected in HEK-293 cells. Reporter plasmid containing PPAR binding sites (PPRE ×3-TK-luc), CMV-β-gal expression construct, or siRNA was temporarily transfected in HEK-293 cells. After 16 hours, DMSO or Wy-14643 was treated for 6 hours, and then Luciferase assay was performed (FIG. 9B).
After 16 hours from the transfection, cells were treated with solvent (DMSO) or Wy-14643 for 6 hours and the Luciferase assay was performed.
The luciferase assay was performed similar to the example 9 except for using 5 μM of LS-102, 0.1 μM and 0.5 μM of 348, 0.1 μM and 5 μM of 349, and 5 μM of 351 and 355 instead of transfecting the Syno siRNA in the example 9. The same volume of DMSO, which is a solvent of each compound, was added as a control.

PGC-1β [5] = assay: PGC-1β protein and mRNA level in treated HEK 293 cells; format: cell-based
Method: Firstly, synoviolin knock down was performed by siRNA in HEK 293 cells. Synoviolin siRNA was prepared in accordance with already reported article (see, Yamasaki, S., et al. (2007). Cytoplasmic destruction of p53 by the endoplasmic reticulum-resident ubiquitin ligase ‘Synoviolin’. EMBO J 26, 113-122.). Transfection of siRNA into cells was performed in accordance with a protocol with Lipofectamine 2000 (Invitrogen, Corporation).
When a protein level of the PGC-1β was investigated as a confirmation, the protein level of the PGC-1β was doubled in LS-102 treated cells. On the other hand, the expression of PGC-1β mRNA was not changed by the LS-102 treatment.

[6] = test system: mitochondria in adipose tissue cells; assay: mitochondria in adipose tissue of mice given LS-102 (electron micrographs); format: in vivo, C57BL/6J mice; conditions: 50 mg/kg body weight per day intraperitoneally, fifty seventh day, vs DMSO, FIG. 18
Method: 50 mg/kg body weight of LS-102 per day or solvent (DMSO) as a control was administered intraperitoneally to 7 to 8-week-old C57BL/6J mice to observe adipose tissue slices of the mice of fifty seventh day after the administration using a microscope. […] Magnifications of the electron microscope were 2,500 folds and 10,000 folds and the white bars indicate scale bars (2 μm in the 2,500 folds and 500 nm in the 10,000 folds).

PGC-1β [7] = assay: PGC-1β protein and mRNA level in skin fibroblasts from syno cKO mice (Western blot, real-time PCR); format: cell-based, mouse
Method: Skin fibroblasts from syno CKO mice were cultivated in DMEM medium and treated by tamoxifen (Tam) or solvent (DMSO) for 48 hours. Cell extracts or total RNA were collected, each was used for western blot and real-time PCR, respectively.
Further, in order to investigate whether […] was involved in synoviolin-mediated degradation of PGC-1β in cells, after the treatment by tamoxifen or solvent in the above experiment, 10 μM of MG-132, which is a proteasome inhibitor, was added and treated for two hours, and then, similar experiment was performed.

[8] = 2 μg PGC-1β and 2 μg GST-Syno ΔTM, FIGS. 11-1 to 11-4

SMILES: O=C1C=CC(=O)c2c(O)ccc(O)c21 [compound 348]
number and size of mitochondria [1]: proliferation (increase in the number) of mitochondria or increase in size of mitochondria has been observed
binding between synoviolin and PGC-1β [2, 8]: inhibition of the binding
inhibiting activity of the PGC-1β ubiquitination, concentration dependency [3]: in 10 μM is higher than that in 1 μM
polyubiquitination of PGC-1β [3]: suppressed

SMILES: O=c1c(O)c(-c2ccc(O)c(O)c2)oc2cc(O)cc(O)c12 [quercetin, 2-(3,4-dihydroxyphenyl)-3,5,7-trihydroxy-4H-1-benzopyrano-4-on, reference compound]
binding between synoviolin and PGC-1β [2, 8]: inhibition of the binding
self-ubiquitination of synoviolin protein (synoviolin protein): inhibit self-ubiquitination of synoviolin protein

SMILES: Cc1cccc(Nc2cc(Cl)nc(SCC(=O)O)n2)c1C [Wy-1463, reference compound]
PPRE ×3-TK-luc reporter activity ([4]; PPARα agonist treated for 6 hours vs DMSO, FIG. 9B): induced

binding between synoviolin and PGC-1β ([2]; MBP-PGC-1β-His and GST-Syno ΔTM, incubated 12 hours, FIG. 10): has an effect on inhibition of binding
SMILES: CCNCCN(CC)c1nc(Nc2ccc3ncoc3c2)nc(N[C@@H](C)C2CCCCC2)n1 [LS-102]
protein level of the PGC-1β (PGC-1β [5]; LS-102 treated cells): doubled
expression of PGC-1β mRNA (PGC-1β [5]; LS-102 treatment): not changed
number and volume density of mitochondria in the adipose tissue cells [6]: increases in number and volume density of mitochondria

SMILES: O=C1C=CC(=O)c2c(O)cccc21 [compound 349]
number and size of mitochondria [1]: proliferation (increase in the number) of mitochondria or increase in size of mitochondria has been observed
binding between synoviolin and PGC-1β [2, 8]: inhibition of the binding
inhibiting activity of the PGC-1β ubiquitination, concentration dependency [3]: in 10 μM is higher than that in 1 μM
polyubiquitination of PGC-1β [3]: suppressed

binding between synoviolin and PGC-1β [2, 8]: inhibition of the binding
SMILES: O=C1CCC(=O)c2c(O)cccc21 [compound 355]
number and size of mitochondria [1]: proliferation (increase in the number) of mitochondria or increase in size of mitochondria has been observed

SMILES: CC(C)C[C@@H](C=O)NC(=O)[C@H](CC(C)C)NC(=O)[C@H](CC(C)C)NC(=O)OCc1ccccc1 [MG-132] (Cbz-Leu-Leu-Leu-aldehyde)
protein level of PGC-1β (PGC-1β [7]; 10 μM MG-132 for two hours, solvent-treated (DMSO-treated) skin fibroblasts): 1.6 folds
protein level of PGC-1β, additive effect of tamoxifen treatment and MG-132 (PGC-1β [7]; 10 μM MG-132 for two hours, tamoxifen-treated skin fibroblasts): 1.1 folds

binding between synoviolin and PGC-1β [2, 8]: inhibition of the binding
SMILES: O=C1C=CC(=O)c2c(Cl)ccc(O)c21 [compound 358]

SMILES: CC1=CC(=O)c2c(O)cccc2C1=O [plumbagin, 2-methyl-5-hydroxy-1,4-naphthoquinone]
self-ubiquitination of synoviolin protein (synoviolin protein): inhibit self-ubiquitination of synoviolin protein

SMILES: CC/C(=C(\c1ccccc1)c1ccc(OCCN(C)C)cc1)c1ccccc1 [Tam]
protein level of PGC-1β (PGC-1β [7]; Tam treatment 48 hours (induces synoviolin knockout) vs DMSO, skin fibroblasts of syno cKO mice): 1.4 folds
mRNA level of PGC-1β (PGC-1β [7]; Tam treatment 48 hours, skin fibroblasts of syno cKO mice): no change

binding between synoviolin and PGC-1β [2, 8]: enhances the binding
SMILES: CC1=CC(=O)c2ccccc2C1=O [compound 351]
luciferase activity ([4]; compounds instead of Syno siRNA (351: 5 μM), DMSO control, FIG. 12): lowered
